Key:
TK6 cells = assay: γH2AX assay using TK6 cells; assay type: cell-based, Human; details: 4 hr treatment, up to 100 μM
Procedure: γH2AX Assay Using TK6 Cells
Human lymphoblasts-derived TK6 cells were treated with the compounds of Examples 489, 512 or 519 at 0, 10, 30 or 100 μmol/L (final concentration) for 4 hr, and the presence or absence of DNA damage was evaluated by measuring phosphorylation of histone H2AX (γH2AX) as a marker. In addition, cytotoxicity after 24-hr treatment was also evaluated.
Exponentially growing TK6 cells were prepared at the cell density of 4×10^5 cells/mL in a culture medium, and was added to a 96-well plate by 100 μL/well. A test compound solution (2% DMSO) prepared using a culture solution, having twice the concentration on the above-mentioned final concentrations, was added thereto by 100 μL/well. This plate was incubated at 37° C., the cell suspension after 4 hr was sampled, and stained using In Vitro MultiFlow™ DNA Damage Kit (Litron), and H2AX phosphorylation level in each nucleus was measured using a flow cytometer and average value was calculated. The H2AX phosphorylation level in the concurrent vehicle control group was also measured and average value was calculated. The rate of change in the H2AX phosphorylation level in the treatment groups relative to that in the control group was calculated, and Dunnett test (significance level: two-tailed 1%) was performed. In addition, the cell suspension after 24 hr treatment was sampled, and the nucleus number was measured, and variation in the nucleus number in the treatment groups relative to that in the concurrent vehicle control group was used as an indicator of cytotoxicity. […] Therefore, the potential of the compounds for DNA strand breakage was judged to be negative under this test condition.

[1] = system: liver and glandular stomach cells; assay: Comet assay in rats (liver and glandular stomach); assay type: in vivo, rats (Crl:CD(SD)); details: rats, 1000 mg/kg and 2000 mg/kg once daily for 3 days
Procedure: Combination Assay of Micronucleus Test and Comet Assay in Rats
The compound of Example 489 at doses of 1000 and 2000 mg/kg was orally administered to 8 to 9-week-old rats (Crl:CD(SD), five/group) once daily for 3 days, and micronucleus induction was evaluated in bone-marrow cells, and DNA damage was evaluated by DNA fragmentation of cell nucleus in the liver and glandular stomach.
Sample for comet assay was obtained from liver and glandular stomach by the following procedures. A part of left lateral lobe of liver was washed well with a cooled mincing buffer solution (Hanks' balanced salt solution containing 20 mmol/L EDTA and 10 vol % DMSO, pH7.5), and minced finely with dissecting scissors. This sample was kept on ice for 15 to 30 seconds, the precipitated large cell mass was removed, and the obtained cell suspension was kept on ice. Glandular stomach was added to a cooled mincing buffer solution, and kept on ice for 15 to 30 min. Then, the surface epithelium was removed by scraping gently twice, the stomach mucosa was washed well with a cooled mincing buffer solution, and the mucosa surface was taken out by scraping carefully four times or five times. This was kept on ice for 15 to 30 seconds, the precipitated large cell mass was removed, and the obtained cell suspension was kept on ice.
The liver and glandular stomach cell suspensions prepared by the above-mentioned procedures were added to 0.5 w/v % low-melting agarose so that the concentration became 10 vol % or less, 40 μL of the suspension was dropped to MAS-coated slide (Matsunami Glass Ind., Ltd.), and fixed to give a slide sample. The slide sample was immersed in a cooled cell lysate [an aqueous solution containing 2.5 mol/L sodium chloride, 100 mmol/L EDTA, 10 mmol/L tris(hydroxymethyl)aminomethane, 10 vol % DMSO and 1 vol % Triton X-100, pH 10.0], and kept overnight under light shielding in a refrigerator (2 to 8° C.).
The slide sample was washed with ultrapure water, set at random into an electrophoresis apparatus filled with an alkali buffer solution (an aqueous solution containing 0.3 mol/L sodium hydroxide and 1 mmol/L EDTA, pH >13) for electrophoresis. After confirming that the sample was completely immersed, the sample was left for 20 min to unwind the strands. Next, electrophorese was performed at a constant voltage of 0.7 to 1 V/cm (current is set about 0.30 A) for 20 min (the electrophoresis apparatus was kept on ice so that the alkali buffer solution for electrophoresis was kept at a constant temperature of 10° C. or below, during from the dissociation of the strands to electrophoresis). After electrophoresis, the slide sample was immersed in a neutralizing solution [0.4 mol/L aqueous tris(hydroxymethyl)aminomethane solution, pH 7.5] for 5 min or longer. Then, the slide sample was immersed in ethanol for 5 min or longer, and air-dried. […] The slide samples for negative control, test compound and positive control groups were encoded, and analyzed by the blind method. In each individual animal, 150 of suitable cells were selected for observation using a biological microscope with fluorescence attachment at 200-fold final magnification, and analyzed by image analysis software (Comet Assay IV, Perceptive Instruments Ltd.). The degree of the DNA damage was evaluated by % tail intensity calculated automatically from image analysis software. The median of the % tail intensity was calculated in each slide sample, and the average of the median was calculated in each individual. […]

potential for DNA strand breakage (judgement) (TK6 cells): negative | DNA strand breakage in liver and glandular stomach cells [1]: not induced
SMILES: O=C1c2cc(-c3nnc(C(F)F)o3)cnc2CN1[C@@H]1CCCC[C@H]1NC(=O)C(F)(F)C(F)(F)F [Example 489, N-((1R,2R)-2-(3-(5-(difluoromethyl)-1,3,4-oxadiazol-2-yl)-5-oxo-5,7-dihydro-6H-pyrrolo[3,4-b]pyridin-6-yl)cyclohexyl)-2,2,3,3,3-pentafluoropropanamide]
histone H2AX phosphorylation (γH2AX) resulted from DNA strand breakage (TK6 cells): did not induce histone H2AX phosphorylation
